Results from patent publication US7531550B2, “Pseudobase benzo[c]phenanthridines with improved efficacy, stability, and safety” (Yale University, priority 2006, dated 2009).

Experiments:
Format in all cases: physicochemical
[1] = Conversion of chelerythrine pseudobases to parent chelerythrine in simulated gastric fluid (SGF); details: for conversion to chelerythrine chloride (1H NMR analysis): 1 mg in 5 mL, 37° C.
Description: Simulated Gastric Fluid (SGF): Sodium chloride (2 gm), 750 mL distilled water, and 7.0 mL of concentrated hydrochloric acid are added into a 1000 ml volumetric flask. The flask is swirled to mix and the volume brought to 1000 mL with distilled water. The pH should be approx. 1.2.
(§1) General conversion procedure: The pseudobases are placed in SGF or SIF at about 0.2 mg/mL concentration and placed in 37° C. bath with gentle stirring. For those pseudobases which have low aqueous solubility, up to 20% co-solvent such as methanol is added to facilitate dissolution. The progress of the conversion is followed by visual observation (color change) and ^1H NMR analysis.
(§2) 6-tert-Butoxy-5,6-dihydrochelerythrine (1 mg) is placed in 5 mL of simulated gastric fluid in a glass vial. The vial is gently placed in 37° C. bath with gentle stirring. The solid pseudobase gradually dissolves to give a yellow solution which is the characteristic color of the parent chelerythrine chloride.
as §2, with “6-Diethyl-(5,6-dihydrochelerythrine)-malonate” for “6-tert-Butoxy-5,6-dihydrochelerythrine”, “vial containing 10% methanol.” for “vial.”

[2] = Solubility of the chelerythrine ether dimer
Excerpt: (§3) The quaternary nitrogen imparts inherent chemical reactivity into these alkaloids. Nucleophiles can readily add to the adjacent carbon to create a neutral pseudobase. Water forms an unstable adduct with chelerythrine that can be seen in NMR studies. Additionally, 6-methoxy-5,6-dihydrochelerytherine and 6-ethoxy-5,6-dihydrochelerytherine (Artarine) have been reported as byproducts formed during the isolation of chelerythrine from plants utilizing methanol and ethanol extractions. The ability of this class of compounds to form pseudobases which can convert back to the quartenary […] is dependent on the solubility of the resulting pseudobase in biological media, the basicity of the leaving group adjacent to the position to become quartenary and the aromatic substitution pattern and nature of substituting agents (electron donating or withdrawing). Sanguinarine forms the hydroxyl psuedobase in pH 7.4 water to a higher extent than Chelerythrine. Under basic aqueous conditions, the hydroxypsuedobase of Cheleryturine will dimerize forming an ether bridge between two Chelerythrine molecules attached to the carbon adjacent to the ring nitrogen.

[3] = Conversion to chelerythrine in 0.1N HCL with 30% methanol; details: then 30% methanol added
Excerpt: as §3

[4] = Conversion of chelerythrine pseudobases to parent chelerythrine in simulated intestinal fluid (SIF); details: 1 mg in 5 mL, 37° C., after 4 h
Description: Simulated Intestinal Fluid (SIF): Monobasic potassium phosphate (6.8 gm) and sodium hydroxide (0.616 gm) are added into 250 ml of distilled water in a 1000 ml volumetric flask and swirled until dissolved. 700 ml distilled water is added and the pH checked. The pH is adjusted to pH 6.8+/−0.1 by adding either 0.2N sodium hydroxide or 0.2N hydrochloric acid and the volume is brought to 1000 ml.
as §1
as §2, with “N-(isopropyl)-5,6-dihydrochelerythrine-6-amine” for “6-tert-Butoxy-5,6-dihydrochelerythrine”, “intestinal” for “gastric”, “dissolved” for “dissolves”

COc1ccc2c(c1OC)C(OC(C)(C)C)N(C)c1c-2ccc2cc3c(cc12)OCO3 (stereo not drawn) [compound 37, 6-tert-butoxy-5,6-dihydrochelerytherine]
conversion to chelerythrine chloride (1H NMR analysis) ([1]; simulated gastric fluid, after 2 h): complete conversion

CCOC(=O)C(C(=O)OCC)C1c2c(ccc(OC)c2OC)-c2ccc3cc4c(cc3c2N1C)OCO4 (stereo not drawn) [compound 50, 6-diethyl-(5,6-dihydrochelerythrine)-malonate]
conversion to chelerythrine chloride (1H NMR analysis) ([1]; simulated gastric fluid containing 10% methanol, after 16 h): complete conversion

COc1ccc2c(c1OC)C(OC1c3c(ccc(OC)c3OC)-c3ccc4cc5c(cc4c3N1C)OCO5)N(C)c1c-2ccc2cc3c(cc12)OCO3 (stereo not drawn) [compound 34, 6-(5,6-dihydrochelerytherin-6-yloxy)-5,6-dihydrochelerytherine]
conversion to Chelerythrine in simulated gastric fluids ([1]; simulated gastric fluids): does not convert readily | solubility [2]: quite insoluble | conversion to Chelerythrine [3]: occurs rapidly

COc1ccc2c(c1OC)C(NC(C)C)N(C)c1c-2ccc2cc3c(cc12)OCO3 (stereo not drawn) [compound 43, N-(isopropyl)-5,6-dihydrochelerythrine-6-amine]
conversion to chelerythrine chloride (1H NMR analysis) [4]: complete conversion
